# Measurements from publication PMC1977928, “Chlorambucil-monoglutathionyl conjugate is sequestered by human alpha class glutathione S-transferases” (British Journal of Cancer, 1992).
# What was measured:
# Format in all cases: biochemical
# GST P1-1 = molecular target: T1, GST P1-1 (Homo sapiens, UniProt P09211); experiment: inhibition of CDNB conjugation activity
# T1 construct: gene GSTP1; homodimer purified from human kidney cytosol
# GST M1a-1a = molecular target: T2, GST M1a-1a (Homo sapiens, UniProt P09488); experiment: inhibition of CDNB conjugation activity
# T2 construct: gene GSTM1; homodimer purified from human liver cytosol
# T2 sequence (P09488 2-218): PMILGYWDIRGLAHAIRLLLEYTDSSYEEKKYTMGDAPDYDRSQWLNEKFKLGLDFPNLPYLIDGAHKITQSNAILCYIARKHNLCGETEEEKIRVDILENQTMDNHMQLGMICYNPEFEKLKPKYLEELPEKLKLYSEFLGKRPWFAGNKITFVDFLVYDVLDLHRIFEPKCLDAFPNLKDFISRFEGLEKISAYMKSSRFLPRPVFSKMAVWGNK
# GST A1-1 = molecular target: T3, GST A1-1 (Homo sapiens, UniProt P08263); experiment: inhibition of CDNB conjugation activity (Dixon and Hanes plots)
# T3 construct: gene GSTA1; homodimer purified from human liver cytosol
# T3 sequence (P08263 2-222): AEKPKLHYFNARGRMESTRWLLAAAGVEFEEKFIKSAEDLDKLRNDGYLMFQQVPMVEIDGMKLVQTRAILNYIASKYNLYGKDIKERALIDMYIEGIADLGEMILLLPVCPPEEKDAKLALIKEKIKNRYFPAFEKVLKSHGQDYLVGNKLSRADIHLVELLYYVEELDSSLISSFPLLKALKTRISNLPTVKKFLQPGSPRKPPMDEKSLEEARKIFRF
# From the text: inhibition of CDNB conjugation activity (Dixon and Hanes plots) on GST A1-1 | CHBSG was a pure competitive inhibitor of the activity of GSTs A1-1 and A2-2 towards 1-chloro-2,4-dinitrobenzene
# GST A2-2 = molecular target: T4, GST A2-2 (Homo sapiens, UniProt P09210); experiment: as above
# T4 construct: gene GSTA2; homodimer purified from human liver cytosol
# T4 sequence (P09210 2-222): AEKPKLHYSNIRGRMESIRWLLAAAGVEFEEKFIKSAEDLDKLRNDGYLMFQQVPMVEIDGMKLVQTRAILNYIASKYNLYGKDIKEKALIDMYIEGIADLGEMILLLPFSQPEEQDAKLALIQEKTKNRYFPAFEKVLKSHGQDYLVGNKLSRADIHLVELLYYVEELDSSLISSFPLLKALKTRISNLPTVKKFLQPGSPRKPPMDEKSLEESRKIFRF
# T1 sequence (P09211 2-210): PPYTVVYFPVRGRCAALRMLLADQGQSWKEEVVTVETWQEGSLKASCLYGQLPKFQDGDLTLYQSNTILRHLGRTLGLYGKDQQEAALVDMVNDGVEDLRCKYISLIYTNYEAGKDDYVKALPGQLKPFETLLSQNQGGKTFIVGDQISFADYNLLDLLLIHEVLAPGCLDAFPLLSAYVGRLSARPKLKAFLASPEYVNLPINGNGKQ
smiles,measurement,setting,value
N[C@@H](CCC(=O)N[C@@H](CSCCN(CCCl)c1ccc(CCCC(=O)O)cc1)C(=O)NCC(=O)O)C(=O)O [CHBSG],inhibition of CDNB conjugation activity,GST P1-1,> 10 µM
same,inhibition of CDNB conjugation activity,GST M1a-1a,> 10 µM
same,Ki,GST A1-1,1300 nM
same,Ki,GST A2-2,1200 nM
